Measured values taken from patent US20240025883A1, “PYRIMIDIN-2-YL SULFONAMIDE DERIVATIVES” (Hoffmann-La Roche Inc., priority 2021, published 2024).

What follows are molecules tested against human GPR17 short isoform (Homo sapiens (Human), UniProt Q13304) (assay: GPR17 cAMP assay (hGPR17 cAMP, antagonist mode against EC80 of MDL29,951)). Conditions: CHO-K1 cells stably expressing human GPR17 short isoform; EC80 of agonist MDL29,951; forskolin 15 μM.
Format: cell-based
Summary of the method: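 cAMP was read by competitive TR-FRET after a 30 min room-temperature stimulation: antagonists plus EC80 MDL29,951 and 0.5 mM IBMX, followed 5 min later by 15 μM forskolin. Cells were CHO-K1 with stable human GPR17 short isoform in HBSS/HEPES/BSA, pH 7.4; percent activity versus reference antagonist fitted sigmoidally.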

Sequence of human GPR17 short isoform (Q13304 29-367): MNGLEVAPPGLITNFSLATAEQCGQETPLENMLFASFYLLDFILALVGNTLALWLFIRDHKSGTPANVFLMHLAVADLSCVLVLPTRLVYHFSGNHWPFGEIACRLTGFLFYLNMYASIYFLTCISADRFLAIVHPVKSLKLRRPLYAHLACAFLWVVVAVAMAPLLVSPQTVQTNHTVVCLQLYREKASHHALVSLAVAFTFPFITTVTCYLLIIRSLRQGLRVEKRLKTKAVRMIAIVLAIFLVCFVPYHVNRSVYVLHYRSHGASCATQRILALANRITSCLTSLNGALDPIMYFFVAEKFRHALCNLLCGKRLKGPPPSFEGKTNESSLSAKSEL

SMILES | IC50
COc1nc(NS(=O)(=O)c2c[nH]c3nc(Br)ccc23)nc(OC)c1CC(F)F [Example 111, 6-bromo-N-[5-(2,2-difluoroethyl)-4,6-dimethoxy-pyrimidin-2-yl]-1H-pyrrolo[2,3-b]pyridine-3-sulfonamide] | 13 nM
COc1nc(NS(=O)(=O)c2c[nH]c3nc(Br)ccc23)nc(OC)c1CCC(F)F [Example 112, 6-bromo-N-[5-(3,3-difluoropropyl)-4,6-dimethoxy-pyrimidin-2-yl]-1H-pyrrolo[2,3-b]pyridine-3-sulfonamide] | 16 nM
COc1nc(NS(=O)(=O)c2c[nH]c3nc(Br)ccc23)nc(OC)c1CCC#N [Example 113, 6-bromo-N-[5-(2-cyanoethyl)-4,6-dimethoxy-pyrimidin-2-yl]-1H-pyrrolo[2,3-b]pyridine-3-sulfonamide] | 21 nM
COc1nc(NS(=O)(=O)c2c[nH]c3nc(Br)ccc23)nc(OC)c1OCC#N [Example 114, 6-bromo-N-[5-(cyanomethoxy)-4,6-dimethoxy-pyrimidin-2-yl]-1H-pyrrolo[2,3-b]pyridine-3-sulfonamide] | 45 nM
COc1nc(NS(=O)(=O)c2c[nH]c3c(N(C)C)c(Cl)ccc23)nc(OC)c1CC(F)F [Example 115, 6-chloro-N-[5-(2,2-difluoroethyl)-4,6-dimethoxy-pyrimidin-2-yl]-7-(dimethylamino)-1H-indole-3-sulfonamide] | 26 nM
COc1nc(NS(=O)(=O)c2c[nH]c3c2ccc2cccnc23)nc(OC)c1OC(F)F [Example 116, N-[5-(difluoromethoxy)-4,6-dimethoxy-pyrimidin-2-yl]-1H-pyrrolo[3,2-h]quinoline-3-sulfonamide] | 26 nM
COc1nc(NS(=O)(=O)c2c[nH]c3c2ccc2cccnc23)nc(OC)c1OCCF [Example 117, N-[5-(2-fluoroethoxy)-4,6-dimethoxy-pyrimidin-2-yl]-1H-pyrrolo[3,2-h]quinoline-3-sulfonamide] | 30 nM
COc1nc(NS(=O)(=O)c2c[nH]c3nc(Cl)ccc23)nc(OC)c1C [Example 118, 6-chloro-N-(4,6-dimethoxy-5-methyl-pyrimidin-2-yl)-1H-pyrrolo[2,3-b]pyridine-3-sulfonamide] | 33 nM
COc1nc(NS(=O)(=O)c2c[nH]c3nc(Cl)ccc23)ncc1OC(F)F [Example 119, 6-chloro-N-[5-(difluoromethoxy)-4-methoxy-pyrimidin-2-yl]-1H-pyrrolo[2,3-b]pyridine-3-sulfonamide] | 161 nM
COc1nc(NS(=O)(=O)c2c[nH]c3nc(Cl)ccc23)nc(OC)c1CC(F)F [Example 120, 6-chloro-N-[5-(2,2-difluoroethyl)-4,6-dimethoxy-pyrimidin-2-yl]-1H-pyrrolo[2,3-b]pyridine-3-sulfonamide] | 40 nM
COc1nc(NS(=O)(=O)c2c[nH]c3nc(Cl)ccc23)nc(OC)c1CCC(F)F [Example 121, 6-chloro-N-[5-(3,3-difluoropropyl)-4,6-dimethoxy-pyrimidin-2-yl]-1H-pyrrolo[2,3-b]pyridine-3-sulfonamide] | 16 nM
COc1nc(NS(=O)(=O)c2c[nH]c3nc(Cl)ccc23)nc(OC)c1CCC#N [Example 122, 6-chloro-N-[5-(2-cyanoethyl)-4,6-dimethoxy-pyrimidin-2-yl]-1H-pyrrolo[2,3-b]pyridine-3-sulfonamide] | 36 nM
COc1nc(NS(=O)(=O)c2c[nH]c3c(F)c(Cl)ccc23)ncc1CC(F)F [Example 124, 6-chloro-N-[5-(2,2-difluoroethyl)-4-methoxy-pyrimidin-2-yl]-7-fluoro-1H-indole-3-sulfonamide] | 34 nM
COc1nc(NS(=O)(=O)c2c[nH]c3c(F)c(Cl)ccc23)nc(OC)c1OC(F)F [Example 125, 6-chloro-N-[5-(difluoromethoxy)-4,6-dimethoxy-pyrimidin-2-yl]-7-fluoro-1H-indole-3-sulfonamide] | 23 nM
COc1nc(NS(=O)(=O)c2c[nH]c3c(F)c(Cl)ccc23)ncc1OC(F)F [Example 126, 6-chloro-N-[5-(difluoromethoxy)-4-methoxy-pyrimidin-2-yl]-7-fluoro-1H-indole-3-sulfonamide] | 82 nM
